Results on seven compounds are retold here after patent publication US9200016B2, “Substituted 6, 7-dialkoxy-3-isoquinoline derivatives as inhibitors of phosphodiesterase 10 (PDE 10A)” (Allergan, Inc., priority 2013, dated 2015).

Structures can show the parent of a compound that is named as a salt.

As a reminder, the IC50 is the concentration at which inhibition is half-maximal. Low values mean greater potency, high ones weaker potency.

PDE10A, sequence (Q9Y233 whole entry, looked up): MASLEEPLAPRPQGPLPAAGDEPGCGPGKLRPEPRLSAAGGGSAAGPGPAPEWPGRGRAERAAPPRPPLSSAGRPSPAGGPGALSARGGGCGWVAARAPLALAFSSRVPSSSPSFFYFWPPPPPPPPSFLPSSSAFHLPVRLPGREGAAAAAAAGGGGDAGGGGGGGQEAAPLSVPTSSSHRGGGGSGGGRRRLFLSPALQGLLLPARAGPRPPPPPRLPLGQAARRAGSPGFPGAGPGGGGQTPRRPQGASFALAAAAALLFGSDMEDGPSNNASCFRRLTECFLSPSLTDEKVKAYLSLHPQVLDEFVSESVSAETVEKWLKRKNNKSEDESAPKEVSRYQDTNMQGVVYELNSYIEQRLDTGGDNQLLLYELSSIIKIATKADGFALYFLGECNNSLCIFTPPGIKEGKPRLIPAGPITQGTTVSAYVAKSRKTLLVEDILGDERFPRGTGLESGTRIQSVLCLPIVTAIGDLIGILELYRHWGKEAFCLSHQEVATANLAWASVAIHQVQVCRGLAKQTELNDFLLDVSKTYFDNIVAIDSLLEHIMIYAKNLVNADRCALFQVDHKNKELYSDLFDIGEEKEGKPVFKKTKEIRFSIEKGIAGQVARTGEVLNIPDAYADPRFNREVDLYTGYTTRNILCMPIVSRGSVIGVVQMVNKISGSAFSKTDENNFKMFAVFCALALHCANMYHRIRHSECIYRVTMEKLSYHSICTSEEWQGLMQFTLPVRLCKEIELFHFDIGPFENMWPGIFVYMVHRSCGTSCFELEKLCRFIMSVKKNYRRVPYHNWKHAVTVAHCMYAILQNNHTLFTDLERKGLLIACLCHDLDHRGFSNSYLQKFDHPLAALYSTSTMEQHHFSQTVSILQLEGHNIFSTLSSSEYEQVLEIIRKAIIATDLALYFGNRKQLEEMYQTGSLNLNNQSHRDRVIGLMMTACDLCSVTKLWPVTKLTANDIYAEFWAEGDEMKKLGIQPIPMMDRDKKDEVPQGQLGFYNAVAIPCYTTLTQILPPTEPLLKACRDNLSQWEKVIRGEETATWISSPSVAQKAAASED
PDE4D3, sequence (Q08499 other isoform, or with tags, fused parts or gaps): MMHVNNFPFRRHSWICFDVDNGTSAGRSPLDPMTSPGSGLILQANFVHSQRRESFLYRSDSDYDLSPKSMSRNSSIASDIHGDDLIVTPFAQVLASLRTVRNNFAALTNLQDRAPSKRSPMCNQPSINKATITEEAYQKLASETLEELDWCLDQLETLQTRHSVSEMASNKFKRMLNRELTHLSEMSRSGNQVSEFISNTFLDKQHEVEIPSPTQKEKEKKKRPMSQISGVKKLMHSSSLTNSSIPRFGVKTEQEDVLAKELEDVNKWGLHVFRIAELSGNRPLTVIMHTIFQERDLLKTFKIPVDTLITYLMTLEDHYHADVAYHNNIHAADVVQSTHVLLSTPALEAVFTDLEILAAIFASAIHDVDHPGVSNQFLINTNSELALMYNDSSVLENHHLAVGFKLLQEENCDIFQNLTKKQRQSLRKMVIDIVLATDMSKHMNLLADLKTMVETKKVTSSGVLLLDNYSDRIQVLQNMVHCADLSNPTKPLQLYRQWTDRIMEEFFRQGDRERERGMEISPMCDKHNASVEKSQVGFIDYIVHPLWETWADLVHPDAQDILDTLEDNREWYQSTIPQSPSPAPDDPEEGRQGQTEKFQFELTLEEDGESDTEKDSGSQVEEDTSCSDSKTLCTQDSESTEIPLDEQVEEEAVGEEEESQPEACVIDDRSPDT

For the first assay, the target named is PDE10A (Homo sapiens, UniProt Q9Y233). Nature of the assay: Diaxonhit phosphodiesterase assay (TR-FRET, LANCE cAMP kit), PDE10A. In kind it is biochemical. The protocol:
(§1) Diaxonhit Phosphodiesterase Assay (PDE10A and PDE4D3)
The PDE assay is based on the homogenous time-resolved fluorescence resonance energy transfer (TR-FRET) technology (LANCE® from Perkin Elmer). […] When there is PDE activity, resulting in the degradation of the cyclic nucleotide, the complex is not formed and a decrease in signal is observed.
The phosphodiesterase assay was developed using the LANCE® cAMP kit (PerkinElmer). The assay buffer contained HBSS with 5 mM HEPES, 0.1% BSA, and 1.5 mM MgCl2, pH 7.4. […] Chemical compounds were dissolved in DMSO (final concentration 2% (v/v)).
(§2) In a 384-well plate, 2 μL of the inhibitor and 3 μL PDE were added to the well, followed by the addition of 5 μl substrate biotinylated cAMP (1:5). After 60 min incubation at room temperature, 10 μL of assay detection mixture was added to the assay plate. After 1 h at room temperature, the signal was measured on EnVision™ (Perkin Elmer).
(In general: Time-resolved FRET reads energy transfer from a long-lived donor to a nearby acceptor.)
In the case of `COc1cc2cncc(Cc3cnc4ccccc4c3)c2cc1O` [Compound 29, 7-methoxy-4-(quinolin-3-ylmethyl)isoquinolin-6-ol dihydrochloride], the IC50 is more than 10000 nM.
Still for that read-out and setting: next, `COc1cc2c(Cc3cnc4ccccc4c3)cncc2cc1O` [Compound 30, 6-methoxy-4-(quinolin-3-ylmethyl)isoquinolin-7-ol dihydrochloride]: more than 10000 nM; `COc1cc2c(Cc3cnc4ccccc4c3)cnc(C3CCCCC3)c2cc1OC` [Compound 71, 3-((1-cyclohexyl-6,7-dimethoxyisoquinolin-4-yl)methyl)quinoline dihydrochloride]: more than 10000 nM.

The next assay addresses PDE4D3 (Homo sapiens (Human), UniProt Q08499). The experiment in a line: Diaxonhit phosphodiesterase assay (TR-FRET, LANCE cAMP kit), PDE4D3. In kind it is biochemical.
Description: as §1
The PDE assay is based on the homogenous time-resolved fluorescence resonance energy transfer (TR-FRET) technology (LANCE® from Perkin Elmer). This competition based assay is formatted using a cAMP specific antibody labeled with the dye, Alexa Fluor® 647, biotin-cAMP and streptavidin labeled with Europium (Eu-SA). As the complex of Eu-SA/biotin-cAMP/Alexa Fluor 647 labeled antibody is formed, an increase in signal is generated. When there is PDE activity, resulting in the degradation of the cyclic nucleotide, the complex is not formed and a decrease in signal is observed.
The phosphodiesterase assay was developed using the LANCE® cAMP kit (PerkinElmer). The assay buffer contained HBSS with 5 mM HEPES, 0.1% BSA, and 1.5 mM MgCl2, pH 7.4. PDE10A (BPS Bioscience) was used at 200 pg/well (with a specific activity of 3200 pmole/min/μg with assay conditions: 10 mM Tris-HCl, pH 7.4, 10 mM MgCl2, 1 mM MnCl2, 200 μM cAMP, 2.5 kU 5′ nucleotidase, 37° C., 20 min) and PDE4D3 (BPS Bioscience) was used at 100 pg/well (with a specific activity of 32713 pmole/min/μg with assay conditions: 10 mM Tris-HCl, pH 7.4, 10 mM MgCl2, 1 mM MnCl2, 200 μM cAMP, 2.5 kU 5′ nucleotidase, 37° C., 20 min). The Biotin-cAMP tracer, supplied in 10 mmol/L Tris-HCl buffered (pH 8.0) salt solution with 1 mmol/L ethylenediaminetetraacetic acid (EDTA), 0.1% bovine serum albumin (BSA), and 0.05% sodium azide, is used at a dilution of 1/375. The assay detection mixture contained the LANCE Eu-W8044 labeled streptavidin 1/2250 (supplied in 50 mmol/L Tris-HCl buffered (pH 7.8) salt solution with 0.9% sodium chloride (NaCl), 0.1% BSA, and 0.05% sodium azide) and the Alexa Fluor® 647-anti cAMP antibody 1/200 (supplied in 50 mmol/L Tris-HCl buffered (pH 7.8) salt solution with 0.9% NaCl, 0.1% BSA, and 0.05% sodium azide). Chemical compounds were dissolved in DMSO (final concentration 2% (v/v)).
as §2
Turning to `CCc1ncc(Cc2ccc3cccc(O)c3n2)c2cc(OC)c(OC)cc12` [Compound 83, 2-((1-ethyl-6,7-dimethoxyisoquinolin-4-yl)methyl)quinolin-8-ol], half-maximal inhibition (IC50) was put at 439 nM.
As to `CCc1ncc(Cc2ccc3cccc(NC(=O)C(N)=O)c3n2)c2cc(OC)c(OC)cc12` [Compound 93, N^1-(2-((1-ethyl-6,7-dimethoxyisoquinolin-4-yl)methyl)quinolin-8-yl)oxalamide], half-maximal inhibition (IC50) was put at 398 nM.
For `CCCc1ncc(Cc2cnc3ccc(O)c(C(F)(F)F)c3c2)c2cc(OC)c(OC)cc12` [Compound 162, 3-((6,7-dimethoxy-1-propylisoquinolin-4-yl)methyl)-5-(trifluoromethyl)quinolin-6-ol], the IC50 turned out to be 232 nM.
The same measure, in the same setting: next, `COCc1ncc(Cc2cnc3ccc(O)c(C(F)(F)F)c3c2)c2cc(OC)c(OC)cc12` [Compound 169, 3-((6,7-dimethoxy-1-(methoxymethyl)isoquinolin-4-yl)methyl)-5-(trifluoromethyl)quinolin-6-ol]: 194 nM.
